Assay results as given in patent US9499550B2 (BRISTOL-MYERS SQUIBB COMPANY, priority 2012, dated 2016).
Like-named read-outs stand apart in the source and are kept apart here.

Tests used:
[1] = test system: HCV genotype 1a (H77 strain) replicon in HUH-7 cells; test: HCV replicon luciferase reporter assay, genotype 1a; format: cell-based; conditions: Hepatitis C virus, Huh-7, 72 h, 3 days incubation
How it was run: (§1)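 Replicon inhibition for both genotypes was measured as Renilla luciferase signal (EnduRen, 7.5 μM final, 2 h) after 3-day, 37° C exposure of replicon-bearing HUH-7 cells in 4% FCS DMEM, 0.5% DMSO. The 1b construct carries S1179I; the 1a H77 construct carries P1496L and S2204I. Twenty-point, 3-fold dilutions were fitted four-parametrically for EC50, and CC50 was taken from multiplexed Cell Titer-Blue.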

[2] = test system: HCV genotype 1b (Con1) replicon in HUH-7 cells; test: HCV replicon luciferase reporter assay, genotype 1b; format: cell-based; conditions: Hepatitis C virus, Huh-7, 72 h, 3 days incubation
How it was run: as §1

[3] = GETYPE1A, HCV genotype 1a replicon luciferase, read-out: LE_1a (EC50, range)
[4] = GETYPE1B, HCV genotype 1b replicon luciferase, read-out: LE_1b (EC50, range)
[5] = HCV genotype 1a replicon luciferase, read-out: LE_1a (EC50, range)
[6] = HCV genotype 1b replicon luciferase, read-out: LE_1b (EC50, range)
[7] = HCV genotype 1a replicon luciferase assay, range class, read-out: LE_1a (EC50, range)
[8] = HCV genotype 1b replicon luciferase assay, range class, read-out: LE_1b (EC50, range)

## COc1cnc(O[C@@H]2C[C@H]3C(=O)N[C@]4(C(=O)NS(=O)(=O)C5(CF)CC5)C[C@H]4/C=C\CC[C@@H](C)C[C@@H](C)[C@H](NC(=O)OC(C)(C)C(F)(F)F)C(=O)N3C2)c2cc(F)ccc12 [Compound 4083]
[1]; [3]
  EC50: < 5.46 nM
[2]; [4]
  EC50: < 5.46 nM

## COc1cc2c(OC)cnc(O[C@@H]3C[C@H]4C(=O)N[C@]5(C(=O)NS(=O)(=O)C6(CO)CC6)C[C@H]5/C=C\CC[C@@H](C)C[C@@H](C)[C@H](NC(=O)OC(C)(C)C)C(=O)N4C3)c2cc1F [Compound 4122, tert-butyl (2R,6S,7R,9R,13aS,14aR,16aS,Z)-2-(7-fluoro-4,6-dimethoxyisoquinolin-1-yloxy)-14a-(1-(hydroxymethyl)cyclopropylsulfonylcarbamoyl)-7,9-dimethyl-5,16-dioxo-1,2,3,5,6,7,8,9,10,11,13a,14,14a,15,16,16a-hexadecahydrocyclopropa[e]pyrrolo[1,2-a][1,4]diazacyclopentadecin-6-ylcarbamate]
[1]; [5]
  EC50: < 5.46 nM
[2]; [6]
  EC50: < 5.46 nM

## C[C@@H]1CC/C=C\[C@@H]2C[C@@]2(C(=O)NS(=O)(=O)C2CC2)NC(=O)[C@@H]2C[C@@H](Oc3nc(OCC(F)F)cc4c(Cl)cccc34)CN2C(=O)[C@@H](NC(=O)OC(C)(C)C(F)(F)F)[C@H](C)C1 [Compound 1096, 1,1,1-trifluoro-2-methylpropan-2-yl((2R,6S,7R,9R,13aS,14aR,16aS,Z)-2-((5-chloro-3-(2,2-difluoroethoxyl)isoquinolin-1-yl)oxy)-14a-((cyclopropylsulfonyl)carbamoyl)-7,9-dimethyl-5,16-dioxo-1,2,3,5,6,7,8,9,10,11,13a,14,14a,15,16,16a-hexadecahydrocyclopropa[e]pyrrolo[1,2-a][1,4]diazacyclopentadecin-6-yl)carbamate]
[1]; [7]
  EC50: < 5.46 nM
[2]; [8]
  EC50: < 5.46 nM

## CCCOc1cnc(O[C@@H]2C[C@H]3C(=O)N[C@]4(C(=O)NS(=O)(=O)C5CC5)C[C@H]4/C=C\CC[C@H](C)C[C@@H](C)[C@H](NC(=O)OCC4(C)CC4)C(=O)N3C2)c2ccccc12 [Compound 5096, (1-methylcyclopropyl)methyl ((2R,6S,7R,9S,13aS,14aR,16aS,Z)-14a-((cyclopropylsulfonyl)carbamoyl)-7,9-dimethyl-5,16-dioxo-2-((4-propoxyisoquinolin-1-yl)oxy)-1,2,3,5,6,7,8,9,10,11,13a,14,14a,15,16,16a-hexadecahydrocyclopropa[e]pyrrolo[1,2-a][1,4]diazacyclopentadecin-6-yl)carbamate]
[1]; [5]
  EC50: > 87.4 nM
[2]; [6]
  EC50: 4.82 to 103 nM

## CCn1nc(O[C@@H]2C[C@H]3C(=O)N[C@]4(C(=O)NS(=O)(=O)C5CC5)C[C@H]4/C=C\CC[C@@H](C)C[C@@H](C)[C@H](NC(=O)O[C@@H]4C[C@@H]5C[C@@H]5C4)C(=O)N3C2)c2ccccc2c1=O [Compound 5070, (1R,3r,5S)-bicyclo[3.1.0]hexan-3-yl((2R,6S,7R,9R,13aS,14aR,16aS,Z)-14a-((cyclopropylsulfonyl)carbamoyl)-2-((3-ethyl-4-oxo-3,4-dihydrophthalazin-1-yl)oxy)-7,9-dimethyl-5,16-dioxo-1,2,3,5,6,7,8,9,10,11,13a,14,14a,15,16,16a-hexadecahydrocyclopropa[e]pyrrolo[1,2-a][1,4]diazacyclopentadecin-6-yl)carbamate]
[1]; [5]
  EC50: 4.82 to 103 nM
[2]; [6]
  EC50: < 5.46 nM

## C[C@@H]1CC/C=C\[C@@H]2C[C@@]2(C(=O)NS(=O)(=O)C2(C)CC2)NC(=O)[C@@H]2C[C@@H](Oc3ncc(OC4CC4)c4ccccc34)CN2C(=O)[C@@H](NC(=O)OC2CCCCC2)[C@H](C)C1 [Compound 4055, cyclohexyl (2R,6S,7R,9R,13aS,14aR,16aS,Z)-2-(4-cyclopropoxyisoquinolin-1-yloxy)-7,9-dimethyl-14a-(1-methylcyclopropylsulfonylcarbamoyl)-5,16-dioxo-1,2,3,5,6,7,8,9,10,11,13a,14,14a,15,16,16a-hexadecahydrocyclopropa[e]pyrrolo[1,2-a][1,4]diazacyclopentadecin-6-ylcarbamate]
[1]; [5]
  EC50: < 5.46 nM
[2]; [6]
  EC50: < 5.46 nM

## C[C@H]1CC/C=C\[C@@H]2C[C@@]2(C(=O)NS(=O)(=O)C2(C)CC2)NC(=O)[C@@H]2C[C@@H](Oc3nc(OCC(F)F)cc4c(Cl)cccc34)CN2C(=O)[C@@H](NC(=O)OC(C)(C)C)[C@H](C)C1 [Compound 1073, tert-butyl ((2R,6S,7R,9S,13aS,14aR,16aS,Z)-2-((5-chloro-3-(2,2-difluoroethoxyl)isoquinolin-1-yl)oxy)-7,9-dimethyl-14a-(((1-methylcyclopropyl)sulfonyl)carbamoyl)-5,16-dioxo-1,2,3,5,6,7,8,9,10,11,13a,14,14a,15,16,16a-hexadecahydrocyclopropa[e]pyrrolo[1,2-a][1,4]diazacyclopentadecin-6-yl)carbamate]
[1]; [7]
  EC50: < 5.46 nM
[2]; [8]
  EC50: < 5.46 nM

## COc1nnc(O[C@@H]2C[C@H]3C(=O)N[C@]4(C(=O)NS(=O)(=O)C5(C)CC5)C[C@H]4/C=C\CC[C@H](C)C[C@@H](C)[C@H](NC(=O)NC(C)(C)C)C(=O)N3C2)c2ccccc12 [Compound 5011, (2R,6S,7R,9S,13aS,14aR,16aS,Z)-6-(3-(tert-butyl)ureido)-2-((4-methoxyphthalazin-1-yl)oxy)-7,9-dimethyl-N-((1-methylcyclopropyl)sulfonyl)-5,16-dioxo-1,2,3,5,6,7,8,9,10,11,13a,14,14a,15,16,16a-hexadecahydrocyclopropa[e]pyrrolo[1,2-a][1,4]diazacyclopentadecine-14a-carboxamide]
[1]; HCV genotype 1a replicon luciferase, read-out: LE_1a (EC50)
  EC50: 41.1 nM
[1]; [5]
  EC50: 4.82 to 103 nM
[2]; HCV genotype 1b replicon luciferase, read-out: LE_1b (EC50)
  EC50: 14.2 nM
[2]; [6]
  EC50: 4.82 to 103 nM

## CC[C@@H]1C[C@H](C)CC/C=C\[C@@H]2C[C@@]2(C(=O)NS(=O)(=O)C2(C)CC2)NC(=O)[C@@H]2C[C@@H](Oc3ncc(OC)c4ccc(F)cc34)CN2C(=O)[C@H]1NC(=O)N1CC(C)OC(C)C1 (stereo partly drawn) [Compound 4328, N-((2R,6S,7R,9R,13aS,14aR,16aS,Z)-7-ethyl-2-((7-fluoro-4-methoxyisoquinolin-1-yl)oxy)-9-methyl-14a-(((1-methylcyclopropyl)sulfonyl)carbamoyl)-5,16-dioxo-1,2,3,5,6,7,8,9,10,11,13a,14,14a,15,16,16a-hexadecahydrocyclopropa[e]pyrrolo[1,2-a][1,4]diazacyclopentadecin-6-yl)-2,6-dimethylmorpholine-4-carboxamide]
[1]; [5]
  EC50: 1.01 to 5 nM
[2]; [6]
  EC50: 1.01 to 5 nM

## C[C@@H]1CC/C=C\[C@@H]2C[C@@]2(C(=O)NS(=O)(=O)C2CC2)NC(=O)[C@@H]2C[C@@H](Oc3ncc(OCC4CC4)c4ccc(F)cc34)CN2C(=O)[C@@H](NC(=O)OC(C)(C)C(F)(F)F)[C@H](C)C1 [Compound 4067]
[1]; [3]
  EC50: 4.82 to 103 nM
[2]; [4]
  EC50: < 5.46 nM

## COc1ccc2c(O[C@@H]3C[C@H]4C(=O)N[C@]5(C(=O)NS(=O)(=O)C6(CF)CC6)C[C@H]5/C=C\CC[C@@H](C)C[C@@H](C)[C@H](NC(=O)OC(C)(C)C)C(=O)N4C3)nc(N(C)C)nc2c1 [Compound 3006, tert-butyl ((2R,6S,7R,9R,13aS,14aR,16aS,Z)-2-((2-(dimethylamino)-7-methoxyquinazolin-4-yl)oxy)-14a-(((1-(fluoromethyl)cyclopropyl)sulfonyl)carbamoyl)-7,9-dimethyl-5,16-dioxo-1,2,3,5,6,7,8,9,10,11,13a,14,14a,15,16,16a-hexadecahydrocyclopropa[e]pyrrolo[1,2-a][1,4]diazacyclopentadecin-6-yl)carbamate]
[1]; [7]
  EC50: < 5.46 nM
[2]; [8]
  EC50: < 5.46 nM
